Measured values taken from patent US20070249540A1, “Methods for Inhibiting Proteasome and Heat Shock Protein 90” (priority 2004, published 2007).

Tests used:
[1] = system: MCF-7 breast cancer cells; details: 0.01 μM taxol, stated as known; cited from earlier work
[2] = system: MCF-7 breast cancer cells; experiment: Sensitization of MCF-7 breast cancer cells to the cytotoxic effects of Taxol; type: cell-based, human; details: MCF-7, 0.01 μM Taxol alone
Procedure: Tumor cells are allowed to proliferate in the presence of an inhibitory agent for 48 to 96 hrs. At the end of the assay, tumor cell proliferation in the presence of the inhibitory agent is determined either by cell counting or BrdU incorporation and expressed as % of Control Proliferation, where the term “Control Proliferation” refers to tumor cell proliferation in the absence of any inhibitory or other agents.
MCF-7 breast cancer cells were plated onto a 24-well plate at a density of 208,000 cells per well and allowed to adhere overnight. Subsequently, the cells were treated with 0.01 μM taxol, a concentration known to inhibit 50% of MCF-7 cell proliferation. 6 hrs after the addition of taxol, half of the wells received 0.001 μM SEQ ID NO: 2. […] Cell proliferation of control (untreated) MCF-7 cells and MCF-7 cells treated either with Taxol or SEQ ID NO: 2 alone or with the combination of Taxol and SEQ ID NO: 2 was determined.

CC(=O)O[C@H]1C(=O)[C@@]2(C)[C@H]([C@H](OC(=O)c3ccccc3)[C@]3(O)C[C@H](OC(=O)[C@H](O)[C@@H](NC(=O)c4ccccc4)c4ccccc4)C(C)=C1C3(C)C)[C@]1(OC(C)=O)CO[C@@H]1C[C@@H]2O [Taxol]
inhibition of MCF-7 cell proliferation [1]: 50% | % Control Proliferation [2]: 52%
